Legend:
[1] = tested on: Uptake of Phosphate from the Intestine; experiment: In vivo bolus phosphorus challenge; design: species or system Sprague-Dawley rats; settings: rats on low-phosphorus diet, oral drug dose 30 (unit not given) 15 min before phosphate bolus, serum 30 min post bolus
Procedure: By pretreating animals with a low phosphorus diet followed by the subsequent dosing of a phosphorus bolus, serum phosphorus levels were monitored after 30 minutes as a surrogate for intestinal phosphorus absorption. […] The in vivo bolus phosphorus challenge model used here mimics this model in rats.
Male, 7-week-old Sprague-Dawley rats (Charles-River laboratories international, Hollister, Calif.) were allowed to acclimatize for a minimum of 3 days before switching to a synthetic low-phosphorus diet (TD.85010, Harlan Teklad, Madison, Wis.) which contains 0.1% phosphorus and 0.6% calcium. At day 5, testing compounds or vehicle alone (as indicated) were orally administered at the indicated dose in a volume of 5 ml/kg, followed by a bolus gavage of monobasic sodium phosphate (1 mmol in 1 ml) 15 min after compound dosing. Serum was collected via retroorbital bleeding 30 min post phosphate bolus and phosphate levels were determined utilizing an ACE ALERA blood chemistry analyzer (Alfa Wassermann Diagnostic Technologies, West Caldwell, N.J.).
The extent of inhibition by test compounds on the elevation of serum phosphate levels in response to the bolus of phosphate is shown in Table 3 (data are expressed as % Inhibition, with 6-10 animals per data point). The differences between groups were evaluated by one-way analysis of variance with Dunnett's post hoc tests.

NaPi2b = experiment: Competition with phosphate: uptake assay repeated at 2.1 vs 0.1 mM phosphate; type: cell-based; settings: potency for inhibition of NaPi2b at 2.1 vs 0.1 mM phosphate
Description: In certain preferred embodiments, the phosphate transport inhibitors of the present invention are not competitive inhibitors with respect to phosphate of Na/phosphate co-transport. In certain other preferred embodiments, the phosphate transport inhibitors of the invention are non-competitive inhibitors. Non-competitive inhibitors maintain their degree of inhibition irrespective of the local phosphate concentration. This feature is an important aspect in providing an efficient blockade of intestinal transport in postprandial state, where the local concentration of dietary phosphate can attain concentration as high as 10 mM. It is believed that competitive inhibitors are too sensitive to local phosphate concentration and unable to block phosphate uptake following a high phosphorus meal. Various methods are available for determining whether a phosphate transport inhibitor is non-competitive or competitive. For example, a phosphate uptake assay can be performed and the IC50 values for a compound at different phosphate concentrations can be determined (e.g., “Enzyme kinetics”, I. Segel, 1975, John-Wiley & Sons, p. 123). IC50 values for non-competitive inhibitors will remain the same or similar with respect to the phosphate concentration, whereas IC50 values for competitive inhibitors will increase (i.e. lose potency) as phosphate concentration increases.
To ascertain if an inhibitor was competitive for binding with phosphate, the procedure was repeated, but raising the concentration of the substrate in the assay mixture from 0.1 to 2.1 mM phosphate.

[2] = Determination of compound Cmax and AUC after oral gavage; type: in vivo, Sprague-Dawley rats; settings: Sprague-Dawley, rat plasma, nominal 10 mg/kg (actual 7.6-11 mg/kg), sampling 0.5-4 h
Procedure: Sprague-Dawley rats were orally gavaged with test article at a nominal dose of 2.5 or 10 mg/kg and blood was collected at 0.5, 1, 2 and 4 h. Blood samples were processed to plasma using K2EDTA as an anticoagulant. Plasma samples were treated with acetonitrile containing an internal standard, precipitated proteins removed by centrifugation. Supernatants were analyzed by LC-MS/MS and compound concentrations were determined by interpolated from a standard curve prepared in plasma. All compounds were orally dosed at the dosage shown, and pharmacokinetic parameters determined

[3] = tested on: Uptake of Phosphorus from the Intestine; experiment: In vivo co-dosing in chow, urinary P output relative to P consumed; design: species or system Sprague-Dawley rats; settings: rats, compound in chow, nominal 100 mg/kg/day (mean actual 104-105 mg/kg/day), mean of 24-96 h, vs control
Description: Male, 7-week-old Sprague-Dawley rats (Charles-River laboratories international, Hollister, Calif.) were allowed to acclimate for a minimum of 3 days. The experiment was initiated by switching animals to a synthetic diet (0.6% phosphorus and 0.6% calcium, Harlan Teklad TD.84122) for four days. After this time, the animals were placed into metabolic cages for daily monitoring of food and water consumption, as well as urine and fecal collections. Test compounds were incorporated into the powdered diet listed above containing 3% chocolate flavoring (w/w, BioSery #7345) at 1.3 mg test compound per gram of diet to achieve an average daily nominal dose of 100 mg/kg/day. The actual dose received by each animal was later determined by measuring prepared diet consumption and body weight. Urine samples were collected in three daily periods from 24-48, 48-72, and 72-96 hours of drug dosing. […] Phosphorous levels in the urine were determined by anion exchange chromatography using a Dionex ICS-3000 ion chromatography system. […] Elution of urine phosphate ions was monitored via conductivity detector and reported as ppm relative to a standard ion solution containing phosphate. Daily urinary P output relative to the P consumed in the prepared diet for each animal was calculated. […] The differences between the means of control and treated groups were evaluated by t tests. […]

Compound | % Inhibition of Serum P elevation [1] | Competitive with respect to Pi? (NaPi2b) | AUC [2] | Cmax [2] | Mean % inhibition Urine Pout/P consumed [3]
CN(CCN1CCOCC1)C(=O)c1cccc(C(=O)Nc2ccc(N3CCCCC3)cc2C(=O)Nc2ccn(-c3cccc(C(F)(F)F)c3)n2)c1 [Example 11, N1-Methyl-N1-(2-morpholinoethyl)-N3-(4-(piperidin-1-yl)-2-((1-(3-(trifluoromethyl)phenyl)-1H-pyrazol-3-yl)carbamoyl)phenyl)isophthalamide] | 30.0% | No |  |  | 
O=C(O)CCOCCOCCOCCNC(=O)Cc1cccc(SCc2cccc(C(=O)Nc3ccc(N4CCCCC4)cc3C(=O)Nc3ccn(-c4cccc(C(F)(F)F)c4)n3)c2)c1 [Example 26, 2-Oxo-1-(3-((3-((4-(piperidin-1-yl)-2-((1-(3-(trifluoromethyl)phenyl)-1H-pyrazol-3-yl)carbamoyl)phenyl)carbamoyl)benzyl)thio)phenyl)-6,9,12-trioxa-3-azapentadecan-15-oic acid] |  | No | < 3 ng·h/mL |  | 
CN(CCN1CCOCC1)C(=O)c1cccc(C(=O)Nc2ccc(Cl)cc2C(=O)Nc2ccn(-c3cccc(C(F)(F)F)c3)n2)c1 [Example 14, N1-(4-Chloro-2-((1-(3-(trifluoromethyl)phenyl)-1H-pyrazol-3-yl)carbamoyl)phenyl)-N3-methyl-N3-(2-morpholinoethyl)isophthalamide 2,2,2-trifluoroacetate] |  |  | 788 ng·h/mL | 487 ng/mL | 12%
